Laboratory results reported in patent US8906898B1, “Solid forms of ceftolozane” (Calixa Therapeutics, Inc., priority 2013, dated 2014).
Where a name gives a salt, the structure may show the parent alone. Values belong to the compound of their own block, whether it stands above or below them.

Tests used:
[1] = Stability of HPLC sample solution in refrigerated autosampler; format: physicochemical; settings: 1 mg/mL in 50 mM sodium perchlorate monohydrate, pH 4.00; 4±2° C.
Procedure: (§1) Ceftolozane sulfate samples are prepared at a concentration of 1 mg/mL in diluent (50 mM sodium perchlorate monohydrate, pH 4.00). The system suitability standard (SST) is prepared at a concentration of 1 mg/mL of ceftolozane sulfate containing specified impurities in diluent (50 mM sodium perchlorate monohydrate, pH 4.00). Ceftolozane samples and SST are stored in a refrigerated autosampler tray at 4±2° C. and the samples are only stable for 5 hours at this condition.

[2] = Comparative ceftolozane solvent stability test (purity by HPLC over 6 days); format: physicochemical
Source text: This stability study was to evaluate stability and purity of ceftolozane sulfate in different solvent systems.
Sample 1 was a solvent system used to prepare crystalline ceftolozane sulfate from a mixture of isopropanol and water, as described in Example 2b (in the absence of ethanol). Sample 2 was solvent system used to obtain crystalline ceftolozane sulfate prepared according to the procedure of U.S. Pat. No. 7,129,232, wherein the crystals were precipitated from a mixture of ethanol and water.
Sample 1 and sample 2 were maintained for 6 days (as described in Example 2a, with continuous stirring). The purity of ceftolozane in the samples in each solvent system was measured by HPLC at day 0, day 3, and day 6.
as §1
Each sample is prepared in singlet and injected twice. Only impurities >LOD (0.008% Area) are integrated. The peak area percentage for each impurity >LOD is taken directly from the chromatogram. The mean % area of each peak is calculated and the absolute difference of any peak in the two replicates cannot be >0.030%. The purity and related substances are determined based on relative area % of each peak with respect to the total peak area of the sample. The total impurities are the sum of the individual impurities >LOD.

[3] = Ceftolozane precipitation time as function of solution concentration (visual assessment); format: physicochemical; settings: pH 6.9, 2 to 8° C.
Procedure: Sterile ceftolozane compositions suitable for combination with tazobactam to form a pharmaceutical composition are prepared as a lyophilized powder from the ceftolozane sulfate comprising solid Form 2 by compounding the drug substance with excipients into an aqueous solution, aseptically filtering the solution, lyophilizing the solution, then grinding, sieving and packaging the sterile lyophilized powder. The physical stability of the bulk solution at varying concentrations was examined and concentrations up to 150 mg ceftolozane free base/g solution were found suitable. All the registration batches were prepared using 150 mg/g ceftolozane concentration in the compounding solution and this concentration is proposed for commercial manufacturing. The resulting ceftolozane composition solubility was assessed in a concentration range proposed for manufacturing, in the presence of excipients intended for use in the ceftolozane formulation for use in the pharmaceutical composition. […] Samples were adjusted to pH 6.9, held at 2 to 8° C., and visually assessed for any precipitation.

[4] = Water content by Karl Fischer volumetric titration with Stromboli oven; format: physicochemical; settings: samples equilibrated at 130° C., mean of triplicate
Procedure: Water content of crystalline ceftolozane sulfate (prepared according to Example 2a as Form 1) was determined using a Mettler Toledo Karl Fischer volumetric titrator V30 that was connected to a Mettler Toledo Stromboli oven sample changer. AquaStar CombiTitrant 5 (EMD; Cat. No. 1.88005.1045; Lot No. 51096) was used as the titrant and the AquaStar Combi-Methanol (EMD; Cat. No 1.88009.1045; Lot No 53046) was used as the solvent. For data processing, the LabX software version 3.1.1.0 was employed. The Hydranal Water Standard for KF-Oven (Fluka; Cat. No. 34693; Lot No. SZBB010AV) that is expected to contain 5% water was weighed accurately in duplicate at or very close to 200 mg. The crystalline ceftolozane sulfate (15-18 mg) was weighed accurately in triplicate in separate 20 mL Stromboli sample vials. The vials were sealed with aluminum seals and rubber caps. A blank vial was prepared by sealing an empty 20-mL Stromboli vial with the aluminum seal and the rubber cap. The blank vial was used to determine the background moisture in air inside the vial. […] The KF titrator passed the accuracy test as the mean of the duplicate readings for the water standard was between the acceptance range of 4.80-5.20%. Water content results for crystalline ceftolozane sulfate derived from the triplicate weighings were recorded and the mean was reported. […]

[5] = Gravimetric dynamic vapour sorption (moisture sorption/desorption, hygroscopicity); format: physicochemical; settings: 25° C.
Procedure: Gravimetric dynamic vapor sorption data (FIG. 5) was obtained using a SMS DVS Intrinsic moisture sorption analyser, controlled by DVS Intrinsic Control software v1.0.0.30. The sample temperature was maintained at 25° C. by the instrument controls. The humidity was controlled by mixing streams of dry and wet nitrogen. The relative humidity was measured by a calibrated Rotronic probe, located near the sample. The weight change of the sample as a function of % RH was constantly monitored by the microbalance (accuracy ±0.005 mg). Approximately 40 mg of sample was placed in a tared mesh stainless basket under ambient conditions. Weight reference was established at the start of an experiment. Moisture sorption isotherm parameters were described as below: [table] The moisture sorption/desorption property of crystalline cefolozane sulfate form 2 is depicted in FIG. 5. A reversible hysteresis associated with around 23% w/w water between 0% and 90% relative humidity (RH) was observed. The DVS isotherm in FIG. 5 is consistent with the presence of two crystalline forms that can be interconverted as function of relative humidity. The presence of ceftolozane sulfate solid Form 1 and ceftolozane sulfate solid Form 2 in the sample tested to obtain the DVS isotherm in FIG. 5 was confirmed by a variable humidity XRPD (VH-XRPD) measurement, based on the XRPD diffraction angles disclosed for Form 1 and Form 2 of ceftolozane sulfate (as disclosed herein). Referring to DVS the isotherm plot in FIG. 5, the lower curve corresponds to ceftolozane sulfate in solid Form 2, and the upper curve is corresponds to ceftolozane sulfate in solid Form 1. The Y-axis of the DVS plot is change in mass. The X-axis of DVS plot refers to the percent relative humidity (RH) of the sample. Reference point 10 in FIG. 5 is the starting point of Form 2 in DVS experiment. The lower portion of the curve in FIG. 5 was obtained by measuring the change in mass of a ceftolozane sulfate sample in solid Form 2 while increasing relative humidity (RH) in the sample, starting at reference point 10 of the lower curve from reference point 10 (Form 2) and moving toward reference point 20 (Form 1). Based on the data collected, the ceftolozane sulfate in the sample converted from Form 2 to Form 1 when the sample was exposed to conditions between 50% RH (reference point 12) and 70% RH (reference point 15). Referring again to the lower curve in FIG. 5, ceftolozane sulfate in Form 1 is present in the sample from 70% RH to reference point 20, where the sample is ceftolozane sulfate is in crystalline Form 1. Referring to the upper curve in FIG. 5, from reference point 20 to reference point 30, the ceftolozane sulfate in the sample material remains as solid Form 1. From reference point 30 to around 20% RH (reference point 35 on the upper curve), the crystalline form of ceftolozane sulfate in the material transforms from Form 1 to Form 2. As the relative humidity of the sample was dropped below about 20% on the upper curve between reference point 30 and reference point 40 (0% RH), the ceftolozane sulfate became more amorphous, with some residual Form 2 remaining at reference point 40. […] Hygroscopicity of ceftolozane sulfate, Form 2 was assessed using the SMS DVS Intrinsic moisture sorption analyzer equipped with a calibrated Rotronic probe. […]

[6] = format: physicochemical
Procedure: Thermo Gravimetric Analysis (TGA) experiments were performed on a TA Instruments Discovery Series TGA. The calibration for temperature was carried out using certified indium. Typically, 3-15 mg of a sample was flattened into sealed aluminum pans. Data was acquired for samples with and without a pinhole. For samples with a pinhole, once crimped and sealed, the auto-sampler punched the lid of the sample with its internal puncher right before analysis of the sample. Samples were heated at 20° C./min from 30° C. to 400° C. Dry nitrogen was purged into the system during the experiment at a rate of 50 ml/min. The software used to control the instrument was TRIOS Explorer Software v5.3.0.75. TRIOS software v2.40.1838 or v2.04.04563 was used for data analysis.
Thermogravimetric analysis (TGA) and differential scanning calorimetry (DSC) thermograms are shown in FIG. 3 and FIG. 4, respectively. […] The subsequent exotherm in the thermogram is indicative of decompostion that is consistent with the observation in the melting point experiment.

[7] = Melting point experiment (SRS Optimelt), thermal decomposition; format: physicochemical; settings: scan from 100° C. to 400° C.; decomposed prior to melting
Procedure: Melting point experiment was performed for ceftolozane sulfate form 2 using the SRS Optimelt melting point apparatus. SRS-certified vanillin and phenacetin were used to verify the system performance. The temperature scan from 100° C. to 400° C. was performed for ceftolozane sulfate. The material decomposed prior to melting. The decomposition, as indicated by the distinct change in color, appeared to commence at about 170° C.

Structure (SMILES): Cn1c(N)c(NC(=O)NCCN)c[n+]1CC1=C(C(=O)O)N2C(=O)[C@@H](NC(=O)/C(=N\OC(C)(C)C(=O)O)c3nsc(N)n3)[C@H]2SC1 [Ceftolozane sulfate, 5-amino-4-{[(2-aminoethyl)carbamoyl]amino}-2-{[(6R,7R)-7-({(2Z)-2-(5-amino-1,2,4-thiadiazol-3-yl)-2-[(1-carboxy-1-methylethoxy)imino]acetyl}amino)-2-carboxy-8-oxo-5-thia-1-azabicyclo[4.2.0]oct-2-en-3-yl]methyl}-1-methyl-1H-pyrazolium monosulfate]
- time the sample solution is stable [1]: 5 h

Structure (SMILES): Cn1c(N)c(NC(=O)NCCN)c[n+]1CC1=C(C(=O)[O-])N2C(=O)[C@@H](NC(=O)/C(=N\OC(C)(C)C(=O)O)c3nsc(N)n3)[C@H]2SC1 [Ceftolozane, (6R,7R)-3-[(5-amino-4-{[(2-aminoethyl)carbamoyl]amino}-1-methyl-1H-pyrazol-2-ium-2-yl)methyl]-7-({(2Z)-2-(5-amino-1,2,4-thiadiazol-3-yl)-2-[(1-carboxy-1-methylethoxy)imino]acetyl}amino)-8-oxo-5-thia-1-azabicyclo[4.2.0]oct-2-ene-2-carboxylate]
- purity of ceftolozane after 6-day stability test ([2]; aqueous ethanol solution, methods of U.S. Pat. No. 7,129,232): about 68%
- purity of ceftolozane at start of 6-day stability test ([2]; aqueous ethanol solution, precipitation per U.S. Pat. No. 7,129,232): about 97%
- purity of ceftolozane after 6-day stability test ([2]; process using isopropanol (Example 2a), liquid phase): about 82%
- Time to Precipitate ([3]; ceftolozane sulfate 149 mg/g (free base 130 mg/g), with excipients): >24 hours^a
- Time to Precipitate ([3]; ceftolozane sulfate 172 mg/g (free base 150 mg/g), with excipients): >48 h
- Time to Precipitate ([3]; ceftolozane sulfate 178 mg/g (free base 156 mg/g), last observation at 24 hour): >24 hours^1)
- Time to Precipitate ([3]; ceftolozane sulfate 189 mg/g (free base 165 mg/g), with excipients): <18 h
- Time to Precipitate ([3]; ceftolozane sulfate 200 mg/g (free base 174 mg/g), with excipients): 2 h

Structure (SMILES): Cn1c(N)c(NC(=O)NCCN)c[n+]1CC1=C(C(=O)O)N2C(=O)[C@@H](NC(=O)/C(=N\OC(C)(C)C(=O)O)c3nsc(N)n3)[C@H]2SC1.O=S(=O)([O-])O [Example 1, 7β-[(Z)-2-(5-amino-1,2,4-thiadiazol-3-yl)-2-(1-carboxy-1-methylethoxyimino)acetamido]-3-{3-amino-4-[3-(2-aminoethyl)ureido]-2-methyl-1-pyrazolio}methyl-3-cephem-4-carboxylic acid hydrogen sulfate]
- water content by weight [4]: about 26.3%

The remaining lines, values ahead:

- relative humidity down to which Form 1 transforms to Form 2 ([5]; decreasing RH, from reference point 30): around 20 % RH
Structure (SMILES): Cn1c(N)c(NC(=O)NCCN)c[n+]1CC1=C(C(=O)O)N2C(=O)[C@@H](NC(=O)/C(=N\OC(C)(C)C(=O)O)c3nsc(N)n3)[C@H]2SC1 [ceftolozane sulfate Form 1]

- temperature beyond which degradation likely occurs [6]: > 181 °C
- temperature at which decomposition commenced (change in color) [7]: about 170 °C
- hygroscopicity ([5]; RH 0 to 90%): hygroscopic
- total uptake of water ([5]; at 90% relative humidity, RH 0 to 90%): 23%
- reversible hysteresis, water ([5]; between 0% and 90% relative humidity): around 23 % w/w
- relative humidity below which the solid became more amorphous ([5]; decreasing RH to 0%, some residual Form 2): below 20%
Structure (SMILES): Cn1c(N)c(NC(=O)NCCN)c[n+]1CC1=C(C(=O)O)N2C(=O)[C@@H](NC(=O)/C(=N\OC(C)(C)C(=O)O)c3nsc(N)n3)[C@H]2SC1 [ceftolozane sulfate Form 2]
